HELM strings list units from the 5' end as sugar, base in round brackets, then linkage (d deoxyribose, r ribose, m 2'-O-methyl, p phosphodiester). Strings are as the collection lists them; they lack the last nucleoside at the 3' end of the tested compound. [moe] = 2'-O-(2-methoxyethyl) (MOE); [sp] = phosphorothioate linkage; [m5C] = 5-methylcytosine
What follows are substances tested against GFAP (assay: mouse, dose not given). Details: ASO.

| Substance | 3 h FOB score [score 0-7] |
| --- | --- |
| RNA1{[moe](G)[sp].[moe](A)p.[moe](G)p.[moe](G)p.[moe]([m5C])[sp].d(T)[sp].d(T)[sp].d(T)[sp].d(T)[sp].d(G)[sp].d(A)[sp].d(G)[sp].d(A)[sp].d(T)[sp].d(A)[sp].[moe](T)p.[moe]([m5C])p.[moe](T)[sp].[moe](T)}$$$$ (last 3' nucleoside missing) | 4 |
| RNA1{[moe](G)[sp].[moe](A)p.[moe](G)p.[moe](T)p.[moe](G)[sp].d(T)[sp].d(G)[sp].d(T)[sp].d(A)[sp].d(T)[sp].d(T)[sp].d(A)[sp].d(G)[sp].d(G)[sp].d(A)[sp].[moe](T)p.[moe]([m5C])p.[moe]([m5C])[sp].[moe]([m5C])}$$$$ (last 3' nucleoside missing) | 6 |
| RNA1{[moe](G)[sp].[moe](A)p.[moe](G)p.[moe](T)p.[moe](T)[sp].d(T)[sp].d([m5C])[sp].d(T)[sp].d(T)[sp].d(G)[sp].d(T)[sp].d(T)[sp].d(A)[sp].d(G)[sp].d(T)[sp].[moe](T)p.[moe](G)p.[moe](G)[sp].[moe](A)}$$$$ (last 3' nucleoside missing) | 7 |
| RNA1{[moe](G)[sp].[moe](A)p.[moe](G)p.[moe](T)p.[moe]([m5C])[sp].d(T)[sp].d([m5C])[sp].d(A)[sp].d(G)[sp].d(T)[sp].d(T)[sp].d(T)[sp].d(T)[sp].d([m5C])[sp].d([m5C])[sp].[moe](T)p.[moe]([m5C])p.[moe]([m5C])[sp].[moe](A)}$$$$ (last 3' nucleoside missing) | 4 |
| RNA1{[moe](G)[sp].[moe](A)p.[moe](G)p.[moe](T)p.d(G)[sp].d(T)[sp].d(G)[sp].d(T)[sp].d(A)[sp].d(T)[sp].d(T)[sp].d(A)[sp].d(G)[sp].d(G)[sp].[moe](A)p.[moe](T)p.[moe]([m5C])p.[moe]([m5C])[sp].[moe]([m5C])}$$$$ (last 3' nucleoside missing) | 4 |
| RNA1{[moe](G)[sp].[moe](A)p.[moe](T)p.[moe](T)p.[moe](T)[sp].d(T)[sp].d([m5C])[sp].d([m5C])[sp].d([m5C])[sp].d([m5C])[sp].d(G)[sp].d(T)[sp].d([m5C])[sp].d(T)[sp].d(T)[sp].[moe](T)p.[moe](G)p.[moe](G)[sp].[moe](T)}$$$$ (last 3' nucleoside missing) | 6 |
| RNA1{[moe](G)[sp].[moe](A)p.[moe]([m5C])p.[moe](T)p.[moe](A)[sp].d(T)[sp].d([m5C])[sp].d(T)[sp].d(A)[sp].d(G)[sp].d(G)[sp].d(A)[sp].d(T)[sp].d(T)[sp].d(T)[sp].[moe](G)p.[moe](G)p.[moe]([m5C])[sp].[moe](A)}$$$$ (last 3' nucleoside missing) | 5 |
| RNA1{[moe](G)[sp].[moe](A)p.[moe]([m5C])p.[moe]([m5C])p.[moe](T)[sp].d(G)[sp].d(T)[sp].d(G)[sp].d(A)[sp].d([m5C])[sp].d(T)[sp].d(A)[sp].d(T)[sp].d([m5C])[sp].d(T)[sp].[moe](A)p.[moe](G)p.[moe](G)[sp].[moe](A)}$$$$ (last 3' nucleoside missing) | 3 |
| RNA1{[moe](G)[sp].[moe](G)p.[moe](A)p.[moe](G)p.[moe](A)[sp].d(A)[sp].d(G)[sp].d(G)[sp].d(T)[sp].d([m5C])[sp].d(T)[sp].d(G)[sp].d([m5C])[sp].d(A)[sp].d([m5C])[sp].[moe](G)p.[moe](G)p.[moe](G)[sp].[moe](A)}$$$$ (last 3' nucleoside missing) | 7 |
| RNA1{[moe](G)[sp].[moe](G)p.[moe](A)p.[moe](G)p.[moe](G)[sp].d(G)[sp].d(T)[sp].d(G)[sp].d(A)[sp].d([m5C])[sp].d([m5C])[sp].d([m5C])[sp].d(A)[sp].d(A)[sp].d(G)[sp].[moe](T)p.[moe]([m5C])p.[moe]([m5C])[sp].[moe](T)}$$$$ (last 3' nucleoside missing) | 4 |
| RNA1{[moe](G)[sp].[moe](G)p.[moe](A)p.[moe](G)p.[moe](G)[sp].d(G)[sp].d([m5C])[sp].d(G)[sp].d(A)[sp].d(T)[sp].d(G)[sp].d(T)[sp].d(A)[sp].d(G)[sp].d(T)[sp].[moe](A)p.[moe](G)p.[moe](G)[sp].[moe](T)}$$$$ (last 3' nucleoside missing) | 1 |
| RNA1{[moe](G)[sp].[moe](G)p.[moe](A)p.[moe](T)p.[moe]([m5C])[sp].d(T)[sp].d([m5C])[sp].d([m5C])[sp].d(T)[sp].d([m5C])[sp].d([m5C])[sp].d(T)[sp].d([m5C])[sp].d([m5C])[sp].d(A)[sp].[moe](G)p.[moe]([m5C])p.[moe](G)[sp].[moe](A)}$$$$ (last 3' nucleoside missing) | 0 |
| RNA1{[moe](G)[sp].[moe](G)p.[moe](G)p.[moe](T)p.[moe](G)[sp].d(A)[sp].d(G)[sp].d(T)[sp].d(T)[sp].d(T)[sp].d([m5C])[sp].d(T)[sp].d(T)[sp].d(G)[sp].d(T)[sp].[moe](T)p.[moe](A)p.[moe](G)[sp].[moe](T)}$$$$ (last 3' nucleoside missing) | 6 |
| RNA1{[moe](G)[sp].[moe](G)p.[moe](G)p.[moe](T)p.[moe](G)[sp].d(A)[sp].d([m5C])[sp].d([m5C])[sp].d([m5C])[sp].d(A)[sp].d(A)[sp].d(G)[sp].d(T)[sp].d([m5C])[sp].d([m5C])[sp].[moe](T)p.[moe](T)p.[moe](G)[sp].[moe](G)}$$$$ (last 3' nucleoside missing) | 5 |
| RNA1{[moe](G)[sp].[moe](G)p.[moe](G)p.[moe]([m5C])p.[moe](A)[sp].d(T)[sp].d(G)[sp].d(A)[sp].d(G)[sp].d([m5C])[sp].d([m5C])[sp].d(A)[sp].d(T)[sp].d([m5C])[sp].d([m5C])[sp].[moe](T)p.[moe]([m5C])p.[moe](T)[sp].[moe]([m5C])}$$$$ (last 3' nucleoside missing) | 3 |
| RNA1{[moe](G)[sp].[moe](G)p.[moe](G)p.[moe]([m5C])p.[moe](A)[sp].d([m5C])[sp].d(T)[sp].d(A)[sp].d([m5C])[sp].d([m5C])[sp].d(T)[sp].d(A)[sp].d(G)[sp].d(A)[sp].d(A)[sp].[moe](T)p.[moe](A)p.[moe]([m5C])[sp].[moe](T)}$$$$ (last 3' nucleoside missing) | 5 |
| RNA1{[moe](G)[sp].[moe](G)p.[moe](T)p.[moe](A)p.[moe](A)[sp].d(G)[sp].d([m5C])[sp].d(T)[sp].d(G)[sp].d([m5C])[sp].d(T)[sp].d(G)[sp].d(G)[sp].d(A)[sp].d(G)[sp].[moe](T)p.[moe](A)p.[moe](A)[sp].[moe](G)}$$$$ (last 3' nucleoside missing) | 7 |
| RNA1{[moe](G)[sp].[moe](G)p.[moe](T)p.[moe](A)p.[moe](T)[sp].d(G)[sp].d(A)[sp].d(T)[sp].d(A)[sp].d(G)[sp].d(G)[sp].d([m5C])[sp].d(T)[sp].d([m5C])[sp].d(T)[sp].[moe](G)p.[moe](G)p.[moe]([m5C])[sp].[moe](T)}$$$$ (last 3' nucleoside missing) | 5 |
| RNA1{[moe](G)[sp].[moe](G)p.[moe](T)p.[moe](G)p.[moe](A)[sp].d(G)[sp].d(T)[sp].d(T)[sp].d(T)[sp].d([m5C])[sp].d(T)[sp].d(T)[sp].d(G)[sp].d(T)[sp].d(T)[sp].[moe](A)p.[moe](G)p.[moe](T)[sp].[moe](T)}$$$$ (last 3' nucleoside missing) | 7 |
| RNA1{[moe](G)[sp].[moe](G)p.[moe](T)p.[moe](G)p.[moe](G)[sp].d(G)[sp].d(T)[sp].d(G)[sp].d([m5C])[sp].d([m5C])[sp].d(G)[sp].d(T)[sp].d([m5C])[sp].d(T)[sp].d(G)[sp].[moe](G)p.[moe]([m5C])p.[moe](A)[sp].[moe](G)}$$$$ (last 3' nucleoside missing) | 7 |
| RNA1{[moe](G)[sp].[moe](G)p.[moe](T)p.[moe](G)p.[moe]([m5C])[sp].d(T)[sp].d(T)[sp].d(T)[sp].d(T)[sp].d(G)[sp].d([m5C])[sp].d([m5C])[sp].d([m5C])[sp].d([m5C])[sp].d([m5C])[sp].[moe](T)p.[moe]([m5C])p.[moe](G)[sp].[moe](A)}$$$$ (last 3' nucleoside missing) | 1 |
| RNA1{[moe](G)[sp].[moe](G)p.[moe](T)p.[moe](G)p.[moe]([m5C])p.d(T)[sp].d(T)[sp].d(T)[sp].d(T)[sp].d(G)[sp].d([m5C])[sp].d([m5C])[sp].d([m5C])[sp].d([m5C])[sp].d([m5C])[sp].[moe](T)p.[moe](G)p.[moe](T)[sp].[moe](A)}$$$$ (last 3' nucleoside missing) | 3 |
| RNA1{[moe](G)[sp].[moe](G)p.[moe](T)p.[moe](T)p.[moe](A)[sp].d(G)[sp].d([m5C])[sp].d([m5C])[sp].d(T)[sp].d(T)[sp].d(T)[sp].d([m5C])[sp].d(T)[sp].d(G)[sp].d(A)[sp].[moe](T)p.[moe](G)p.[moe]([m5C])[sp].[moe](T)}$$$$ (last 3' nucleoside missing) | 3 |
| RNA1{[moe](G)[sp].[moe](G)p.[moe](T)p.[moe](T)p.[moe](G)[sp].d(G)[sp].d(T)[sp].d(T)[sp].d(T)[sp].d([m5C])[sp].d(A)[sp].d(T)[sp].d([m5C])[sp].d([m5C])[sp].d(T)[sp].[moe](G)p.[moe](G)p.[moe](A)[sp].[moe](G)}$$$$ (last 3' nucleoside missing) | 3 |
| RNA1{[moe](G)[sp].[moe](G)p.[moe](T)p.[moe]([m5C])p.[moe]([m5C])[sp].d(T)[sp].d(A)[sp].d(A)[sp].d(A)[sp].d(T)[sp].d(A)[sp].d(T)[sp].d(T)[sp].d([m5C])[sp].d(T)[sp].[moe](A)p.[moe](G)p.[moe](T)[sp].[moe]([m5C])}$$$$ (last 3' nucleoside missing) | 1 |
| RNA1{[moe](G)[sp].[moe](G)p.[moe](T)p.[moe]([m5C])p.[moe]([m5C])p.d(T)[sp].d(A)[sp].d(A)[sp].d(A)[sp].d(T)[sp].d(A)[sp].d(T)[sp].d(T)[sp].d([m5C])[sp].d(T)[sp].[moe](A)p.[moe](G)p.[moe](T)[sp].[moe]([m5C])}$$$$ (last 3' nucleoside missing) | 1 |

From the OligoGym collection
